Active and inactive are the calls of the source. No cut-off for these calls is given here.
Experiments:
SARS-CoV-2 [1] = assay: Antiviral activity against SARS-CoV-2 Delta (B.1.617.2) variant infected in human A549 cells harbouring ACE2 pretreated with compound for 1 hr followed by viral infection for 1 hrs and measured after 48 hrs by RT-qPCR analysis; assay type: functional, organism-based; settings: Severe acute respiratory syndrome coronavirus 2, time 50.0 hrs
SARS-CoV-2 [2] = assay: Antiviral activity against SARS-CoV-2 Gamma (P.1) variant infected in human A549 cells harbouring ACE2 pretreated with compound for 1 hr followed by viral infection for 1 hrs and measured after 48 hrs by RT-qPCR analysis; assay type: functional, organism-based; settings: Severe acute respiratory syndrome coronavirus 2, time 50.0 hrs

Q: For Cc1ccc(NC2CNC2)cc1C(=O)N[C@H](C)c1cccc(-c2ccc(CNC3CCCC3)s2)c1, which Activity (SARS-CoV-2 [1]) is on record?
A: The Activity was “Active”.

Q: And the Activity (SARS-CoV-2 [2])?
A: The Activity was “Active”.

Source: ChEMBL document CHEMBL5576130, “Non-Covalent Inhibitors of SARS-CoV-2 Papain-Like Protease (PLpro): In Vitro and In Vivo Antiviral Activity” (J Med Chem, 2024)
